In ChEMBL document CHEMBL1687721, “New drugs against tuberculosis: problems, progress, and evaluation of agents in clinical development” (Antimicrob Agents Chemother, 2009):
In brackets after ≈: the same amount, converted by molar mass.

Tests used:
[1] = system: Mycobacterium tuberculosis; test: microbe, parasite or virus in culture
Description: Antimicrobial activity against rifampicin-sensitive Mycobacterium tuberculosis

[2] = Cmax in healthy human at 600 mg/kg, po; format: ADME, organism-based; parameters: dose 600 mg/kg, route oral; conditions: in vivo
[3] = Plasma protein binding in healthy human at 600 mg/kg, po; format: ADME, organism-based; parameters: dose 600 mg/kg, route oral; conditions: read-out: PPB (converted)
[4] = Ratio of AUC to MIC against Mycobacterium avium; format: functional
[5] = Half life in healthy human at 600 mg/kg, po; format: ADME, organism-based; parameters: dose 600 mg/kg, route oral; conditions: in vivo
[6] = Tmax in healthy human at 600 mg/kg, po; format: ADME, organism-based; parameters: dose 600 mg/kg, route oral; conditions: in vivo
[7] = AUC in healthy human at 600 mg/kg, po; format: ADME, organism-based; parameters: dose 600 mg/kg, route oral; conditions: plasma
[8] = Tmax in healthy human at 10 mg/kg, po; format: ADME, organism-based; parameters: dose 10 mg/kg, route oral; conditions: in vivo
[9] = AUC in healthy human at 10 mg/kg, po; format: ADME, organism-based; parameters: dose 10 mg/kg, route oral; conditions: plasma
[10] = clinical; conditions: human, in vivo, po, 10 mg/kg
[11] = system: Mycobacterium avium; test: Antimicrobial activity against Mycobacterium avium; format: functional
[12] = system: Mycobacterium tuberculosis; test: microbe, parasite or virus in culture; remark: listed apart in the source
Description: Antimicrobial activity against Mycobacterium tuberculosis

[13] = Oral bioavailability in healthy human at 10 mg/kg, po; format: ADME, organism-based; conditions: in vivo
[14] = Plasma protein binding in healthy human at 10 mg/kg, po; format: ADME, organism-based; parameters: dose 10 mg/kg, route oral; conditions: read-out: PPB (converted)
[15] = Drug excretion in feces of healthy human; format: ADME; conditions: faeces, read-out: Activity
[16] = Tmax in healthy human; format: ADME, organism-based; conditions: in vivo
[17] = Half life in healthy human; format: ADME, organism-based; conditions: in vivo
[18] = system: Mycobacterium tuberculosis; test: Antimicrobial activity against compound-susceptible Mycobacterium tuberculosis; format: functional
[19] = Drug excretion in urine of healthy human; format: ADME, tissue-based; conditions: read-out: Activity
[20] = Plasma protein binding in human at 0.1 to 2.5 ug/ml by ultracentrifugation; format: ADME, cell-free; conditions: read-out: PPB (converted)
[21] = Plasma protein binding in Fischer rat at 0.1 to 2.5 ug/ml by ultracentrifugation; format: ADME, cell-free; conditions: read-out: PPB (converted)
[22] = Plasma protein binding in CD2F1 mouse at 0.1 to 2.5 ug/ml by ultracentrifugation; format: ADME, cell-free; conditions: read-out: PPB (converted)
[23] = Plasma protein binding in Beagle dog at 0.1 to 2.5 ug/ml by ultracentrifugation; format: ADME, cell-free, Canis lupus familiaris; conditions: read-out: PPB (converted)
[24] = system: Mycobacterium tuberculosis; format: functional
[25] = clinical; conditions: human, plasma, po, 400 mg/kg
Description: Plasma protein binding in healthy human at 400 mg/kg, po

[26] = Renal excretion in healthy human at 400 mg/kg, po administered as single dose; format: ADME, organism-based, Kidney; parameters: dose 400 mg/kg, route oral; conditions: urine, read-out: Activity
[27] = Oral bioavailability in healthy human at 400 mg/kg, po; format: ADME, organism-based; conditions: in vivo
[28] = clinical; conditions: human, in vivo, po, 400 mg/kg
Description: Tmax in patients with pulmonary tuberculosis at 400 mg/kg, po

[29] = Drug excretion in feces of healthy human at 800 mg/kg; format: ADME, organism-based; parameters: dose 800 mg/kg; conditions: faeces, read-out: Activity
[30] = Drug excretion in urine of healthy human at 800 mg/kg; format: ADME, organism-based; parameters: dose 800 mg/kg; conditions: read-out: Activity
[31] = AUC in healthy human at 400 mg/kg, po; format: ADME, organism-based; parameters: dose 400 mg/kg, route oral; conditions: plasma
[32] = Tmax in human; format: ADME, organism-based; conditions: in vivo
[33] = Half life in human; format: ADME, organism-based; conditions: in vivo

CO[C@H]1/C=C/O[C@@]2(C)Oc3c(C)c(O)c4c(O)c(c(/C=N/N5CCN(C6CCCC6)CC5)c(O)c4c3C2=O)NC(=O)/C(C)=C\C=C\[C@H](C)[C@H](O)[C@@H](C)[C@@H](O)[C@@H](C)[C@H](OC(C)=O)[C@@H]1C [RIFAPENTINE]
MIC [1]: 0.02 µg/mL (≈ 0.0228 µM) | Cmax [2]: 10000 ng/mL | fraction unbound [3]: 0.03 | RatioAUC/MIC [4]: 76.6 | half-life [5]: 13 h | Tmax [6]: 4.8 h | AUC [7]: 319000 ng·h/mL

CO[C@H]1/C=C/O[C@@]2(C)Oc3c(C)c(O)c4c(O)c(c(/C=N/N5CCN(C)CC5)c(O)c4c3C2=O)NC(=O)/C(C)=C\C=C\[C@H](C)[C@H](O)[C@@H](C)[C@@H](O)[C@@H](C)[C@H](OC(C)=O)[C@@H]1C [RIFAMPIN]
Tmax [8]: 1.5 h | AUC [9]: 21500 ng·h/mL | Cmax [10]: 8000 ng/mL | MIC [11]: 0.15 µg/mL (≈ 0.182 µM) | MIC [12]: 0.15 µg/mL (≈ 0.182 µM) | bioavailability [13]: 68% | fraction unbound [14]: 0.15

Cc1c(CN2CCN(c3ccc(C(F)(F)F)cc3)CC2)cc(-c2ccccc2)n1NC(=O)c1ccncc1
MIC90 [12]: 0.25 µg/mL (≈ 0.481 µM)

O=[N+]([O-])c1cn2c(n1)OC[C@@H](OCc1ccc(OC(F)(F)F)cc1)C2 [PRETOMANID]
dose excreted [15]: 26% | Tmax [16]: 4 h | half-life [17]: 18 h | MIC [18]: 0.015 µg/mL (≈ 0.0418 µM) | dose excreted [19]: 65%

CC(C)=CCC/C(C)=C/CNCCNC1C2CC3CC(C2)CC1C3 (stereo unspecified) [SQ109]
fraction unbound [20]: 0.94 | fraction unbound [21]: 0.94 | MIC [18]: 0.16 µg/mL (≈ 0.484 µM) | fraction unbound [22]: 0.94 | fraction unbound [23]: 0.94

CC[C@@H](CO)NCCN[C@@H](CC)CO [ETHAMBUTOL]
Activity [24]: 26%

C[C@]1(COc2ccc(N3CCC(Oc4ccc(OC(F)(F)F)cc4)CC3)cc2)Cn2cc([N+](=O)[O-])nc2O1
MIC [18]: 0.006 µg/mL (≈ 0.0112 µM)

COc1c(N2CCNC(C)C2)c(F)cc2c(=O)c(C(=O)O)cn(C3CC3)c12 (stereo unspecified) [GATIFLOXACIN]
fraction unbound [25]: 0.8 | dose excreted [26]: 77% | bioavailability [27]: 96% | Tmax [28]: 1.5 h

COc1c(N2C[C@@H]3CCCN[C@@H]3C2)c(F)cc2c(=O)c(C(=O)O)cn(C3CC3)c12 [MOXIFLOXACIN]
dose excreted [29]: 25% | MIC [1]: 0.25 µg/mL (≈ 0.623 µM) | bioavailability [27]: 86% | Tmax [28]: 1 h | Activity [24]: 37% | dose excreted [30]: 20% | AUC [31]: 26900 ng·h/mL

COc1nc2ccc(Br)cc2cc1[C@@H](c1ccccc1)[C@@](O)(CCN(C)C)c1cccc2ccccc12 [BEDAQUILINE]
Tmax [32]: 5 h | MIC [18]: 0.03 µg/mL (≈ 0.054 µM) | half-life [33]: 24 h
